Values joined by “and” are separate entries in the source; they are usually repeats but may differ in a detail not shown here. Equal entries are not always repeated. “Also recorded” adds a separate entry of the source. Where two headings read alike, the source gives them in different places.
How the values were obtained:
[1] = test system: A431 cells; experiment: Photodynamic cell killing in the presence of inhibitors of the thioredoxin antioxidant system or nitroxides (annexin V-FITC/propidium iodide flow cytometry); format: cell-based, human; conditions: for cell death: 3 h, irradiation; for potentiating effect on MAL photodynamic cell killing: summary of Examples 2A, 3A
Protocol: After this treatment, the cells were irradiated for 5 min (630 nm, 25 J/cm^2), then washed with PBS and the culture medium was replaced, after which the cells were placed back under 2% O2 and incubated for a further 3 h. Following this final incubation, cell death was analysed by annexin V-FITC and propidium iodide staining in conjunction with flow cytometry.
Cell death analysis by flow cytometry was carried out using the annexin V-FITC/propidium iodide protocol. This protocol allows a quantitative assessment of cell death, particularly specific modes of death, and involves staining the cells with fluorescein isothiocyanate-conjugated annexin A5 (annexin V-FITC) and propidium iodide (PI). Positive staining with annexin V-FITC alone indicates an apoptotic cell; positive staining with PI alone indicates a necrotic cell and dual staining of both annexin V and PI indicates a “late apoptotic” cell.
From each flask being assessed, the old medium was removed and placed into a corresponding individual 15 ml Falcon tube in order to collect any cells that may have detached from the surface. The flask was washed once with 1 ml PBS; also deposited in the Falcon tubes. Trypsin (500 μl) was added to each flask and the flasks were returned to the incubator with their caps loosened. Cell detachment was monitored using an inverted light microscope, until 50% of the cells were detached. The flasks were then lightly tapped to detach the remainder of the cells. Medium (2 ml) was added to each flask in order to neutralise the trypsin present before being removed and dispensed into the Falcon tubes. One more wash with PBS was carried out in order to ensure any cells left in the flasks were collected. The Falcon tubes were then centrifuged at 490 g for 3 min, forming a pellet at the bottom of the tube. The supernatant was discarded, and the cells were re-suspended in 5 ml of PBS, in order to wash them, before being centrifuged again at 490 g for 3 min. The wash stage was carried out once more before re-suspending the cell pellet in 95 μl of ice cold calcium (Ca^2+) buffer (50 mM HEPES, 700 mM NaCl, 12.5 mM CaCl2, pH 7.4) and adding 5 μl 12.5 μg/ml of annexin V-FITC (final concentration, 1.25 μg/ml), under reduced light conditions to prevent bleaching of the FITC. The Falcon tubes were placed on ice and in the dark for 15 min to allow annexin V staining. After 15 min, 860 μl of Ca^2+ buffer (10 mM Hepes adjusted to pH 7.4, 140 mM NaCl and 2.5 mM CaCl2) was added, followed by 40 μl of 1 mg/ml PI in water (final concentration, 0.04 mg/ml) to give a final volume of 1 ml. The samples were then ready to be assessed by flow cytometry.
The following flow cytometry process of sample detection was used. When using annexin V-FITC and PI, the detectors being used were FL1 (λmax=520 nm) and FL3 (λmax=670 nm), respectively, each with their own logarithmic histogram generated by the software. The intensity of the fluorescence detected is measured on a logarithmic scale on the x-axis and the y-axis represents the number of cells detected at a given fluorescence intensity. A plot of FL1/FL3 produces a 4-quadrant graph, where unstained and untreated cells are located in the bottom left quadrant, representing any cells found in the 1st decade of the single plot logarithmic histograms. Single staining with annexin V-FITC and PI are located in the bottom right and top left quadrant, respectively, and dual staining is located in the top right quadrant. These quadrants represent any cells detected above the 1st decade of the logarithmic histograms.

[2] = test system: A431 cells
Protocol: A431 cells were seeded at a density of 1×10^5 cells/ml in 96 well plates and incubated under 2% O2 for 48 h prior to treatment. After 24 h, the culture medium was replaced and the cells were placed back into the incubators under 2% O2. Following this incubation period, the culture medium was then removed and the plates were washed with PBS. The cells were then treated with 1 mM MAL in the absence or presence of one of the compounds of interest and then incubated again at 2% O2 for 3 h. For experiments carried out with SRHDs, this treatment step was carried out for 5 h at 2% O2. After treatment, the cells were washed with PBS, the culture medium was replaced and the cells were placed back under 2% O2 for 3 h. Following this final incubation, cell death was analysed using the resazurin viability assay.
Resazurin (7-hydroxy-3H-phenoxazin-3-one 0-oxide) is a weakly fluorescent blue dye used primarily in oxidation-reduction cell viability assays. Irreversible NADH-dependent reduction by the mitochondria in mammalian cells leads to the production of resorufin, a highly fluorescent product with excitation at 571 nm, emission at 585 nm.
A431 cells were seeded into 96 well plates at a density of 1.5*10^6 cells per ml (200 μl per well, 3*10^5 cells) and incubated for 24 h to adhere. Following incubation, the cells were washed and treated with the compound of interest for the relevant time, and then washed with PBS. […] After a 2 h incubation, the fluorescence of each well was measured (excitation: 571 nm, emission: 585 nm) using a fluorescence plate reader. Data from these experiments was plotted as a percentage of cell viability compared to untreated control cells.

[3] = test system: A431 cells; experiment: Mitochondrial reactive oxygen species generation during photodynamic irradiation, MitoSOX flow cytometry; format: cell-based, human; conditions: 3 hours, irradiated
Protocol: A431 cells were treated concurrently with AP39-C10 (10, 100 or 1000 nM) for 5 hours, MAL (1 mM) for 3 hours and MitoSOX (2.5 μM) for 1 hour, after which they were irradiated for 5 min (630 nm, 25 J/cm^2) and MitoSOX (mito-2-OH-E^+) fluorescence, indicative of mitochondrial oxidant production, was immediately analysed by flow cytometry. Results are set out in FIG. 23.
Mitochondria-targeted dihydroethidium (i.e. MitoSOX) was used to assess the production of mitochondrial reactive oxygen species (ROS) by PpIX photochemical reactions and to determine the effects of AP39-C10 on this process. All of the results are represented as a percentage of the untreated controls (100.0±8.5%). The fluorescence of the photoirradiated cells, which had been pre-treated with MAL, was 193.7±7.3% (p<0.001 c.f. untreated controls).

[4] = test system: A431 cells; experiment: MAL-induced PpIX accumulation, fluorescence plate reader; format: cell-based, human; conditions: for PpIX accumulation, percentage of the MAL alone treatment: FIG. 38; for effect on PpIX fluorescence: 0.01 mM + 1 mM MAL; for increase in PpIX fluorescence: 1 mM + 1 mM MAL
[5] = 1 mM MAL + co-treatment 1 mM (1000 μM)
[6] = 1 mM MAL + nitroxide 1 mM (MitoTEMPO 50 μM) + irradiation, FIG. 13, 34
[7] = MAL 1 mM + co-treatment 1 mM (1000 μM)

| SMILES | cell death [1, 5] | modes of cell death [1, 6] | potentiating effect on MAL photodynamic cell killing [1] | cell viability, percentage of untreated control ([2]; 0.25 mM with 1 mM MAL, 3 hours) [%] | cell viability, percentage of untreated control ([2]; 0.5 mM with 1 mM MAL, 3 hours) [%] | cell viability, percentage of untreated control ([2]; 1 mM with 1 mM MAL, 3 hours) [%] | cell viability, percentage of untreated control ([2]; 2 mM with 1 mM MAL, 3 hours) [%] | cell viability, percentage of untreated control ([2]; 5 mM with 1 mM MAL, 3 hours) [%] | cell viability, percentage of untreated control ([2]; 10 mM with 1 mM MAL, 3 hours) [%] | cell viability, percentage of untreated control ([2]; 10 mM, 24 hours) [%] | cell viability, percentage of untreated control ([2]; 50 mM, 24 hours) [%] | MitoSOX fluorescence, percentage of untreated cells [3, 7] | PpIX accumulation, percentage of the MAL alone treatment ([4]; 10 μM + MAL 1 mM, 3 hours) [%] | effect on PpIX fluorescence ([4]; 3 h) | PpIX accumulation, percentage of the MAL alone treatment ([4]; 100 μM + MAL 1 mM, 3 hours) [%] | increase in PpIX fluorescence ([4]; 3 h) [fold] | PpIX accumulation, percentage of the MAL alone treatment ([4]; 1000 μM + MAL 1 mM, 3 hours) [%] | also measured |
| --- | --- | --- | --- | --- | --- | --- | --- | --- | --- | --- | --- | --- | --- | --- | --- | --- | --- | --- |
| CC1(C)CCCC(C)(C)N1[O] [TEMPO, 2,2,6,6-tetramethyl-1-piperidinyloxy] | 52.0±8.3% and 46.3±3.6% | an increase in apoptotic and late apoptotic cell death; also recorded: a further increase in late apoptosis and necrosis with little effect on apoptotic cell death | more robust potentiating effect | 97.8±3.4 | 97.5±1.7 | 98.6±6.8 | 97.4±6.2 | 92.9±6.6 | 79.9±8.5 | 64.9±0.1 | 8.5±0.2 | 418.8±6.3% | 100.3±3.8 | increased PpIX fluorescence slightly, but this was not statistically significant | 127.0±3.3 | ~2 | 159.2±4.1 | increase in PpIX accumulation compared to MAL alone ([4]; 50 μM + MAL 1 mM, 3 hours, FIG. 35): 0.0±4.9%; peak response, increase in PpIX accumulation compared to MAL alone ([4]; peak at TEMPO 5 mM, MitoTEMPO 100 μM, CP94 100 μM, MAL 1 mM, 3 hours): 138.1±10.5% |
| CC1(C)CC(O)CC(C)(C)N1[O] [TEMPOL, 4-hydroxy-2,2,6,6-tetra methylpiperidine 1-oxyl] | 50.8±6.8% and 69.3±3.1% | an increase in late apoptotic and necrotic cell death; also recorded: a further increase in late apoptosis and necrosis with little effect on apoptotic cell death | more robust potentiating effect | 99.3±4.4 | 102.0±3.6 | 99.8±2.9 | 104.2±3.3 | 116.2±2.7 | 77.8±4.7 | – | – | 253.3±6.3% and 316.8±1.6% | 109.0±2.7 | increased PpIX fluorescence slightly, but this was not statistically significant | 141.2±4.2 | ~2 | 209.2±5.1 | modes of cell death ([1]; 1 mM MAL + TEMPOL, dependent on concentration + irradiation, FIG. 37): an increase in apoptosis and late apoptosis, with smaller increases in necrosis also observed; cell death ([1]; 1 mM MAL + co-treatment 10 μM): 40.5±4.1%; cell death ([1]; 1 mM MAL + co-treatment 100 μM): 48.5±7.4%; MitoSOX fluorescence, percentage of untreated cells ([3]; MAL 1 mM + co-treatment 10 μM): 99.4±5.44%; MitoSOX fluorescence, percentage of untreated cells ([3]; MAL 1 mM + co-treatment 100 μM): 226.5±19.4%; effect on PpIX accumulation ([4]; 0.1 mM and 1 mM + 1 mM MAL, 3 h): significantly increased PpIX accumulation further |
| CC1(C)CC(=O)CC(C)(C)N1[O] [TEMPONE] | 37.9±2.3% | a further increase in late apoptosis and necrosis with little effect on apoptotic cell death | mild potentiating effect | – | – | – | – | – | – | 80.3±13.3 | 53.7±13.3 | 226.4±6.8% | 100.3±4.0 | – | 123.8±2.5 | – | 160.2±3.2 | – |
